{"source": "patent US9302999B2", "about": "“Substituted triazoles as herbicides” (E. I. DU PONT DE NEMOURS AND COMPANY, priority 2012, dated 2016)", "type_in_all_cases": "in vivo", "key": {"[1]": {"tested_on": "morningglory (Ipomoea spp.)", "experiment": "Test A pre-/postemergence: morningglory", "details": "Ipomoea, 240 h; for pest or weed control at 125 g/ha: 125 g ai/ha; for pest or weed control at 500 g/ha: 500 g ai/ha", "in_short": "(§1)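 Plants in loam–sand blend were treated with test chemicals in non-phytotoxic solvent with surfactant, either as preemergence directed soil spray or postemergence at 2–10 cm, one- to two-leaf stage. After about ten days in greenhouse, injury was rated visually against untreated controls on a 0–100 scale (100 = complete control).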"}, "[2]": {"tested_on": "pigweed (Amaranthus retroflexus)", "experiment": "Test A pre-/postemergence: pigweed", "details": "Amaranthus retroflexus, 240 h; for pest or weed control at 125 g/ha: 125 g ai/ha; for pest or weed control at 500 g/ha: 500 g ai/ha", "in_short": "as §1"}, "[3]": {"tested_on": "velvetleaf (Abutilon theophrasti)", "experiment": "Test A pre-/postemergence: velvetleaf", "details": "Abutilon theophrasti, 240 h; for pest or weed control at 125 g/ha: 125 g ai/ha; for pest or weed control at 500 g/ha: 500 g ai/ha", "in_short": "as §1"}, "[4]": {"tested_on": "wheat (Triticum aestivum)", "experiment": "Test A pre-/postemergence: wheat", "details": "Triticum aestivum, 240 h; for plant injury at 125 g/ha: 125 g ai/ha; for plant injury at 500 g/ha: 500 g ai/ha", "in_short": "as §1"}, "[5]": {"tested_on": "corn (Zea mays)", "experiment": "Test A pre-/postemergence: corn", "details": "Zea mays, 240 h", "in_short": "as §1"}, "[6]": {"tested_on": "ryegrass, Italian (Italian ryegrass, Lolium multiflorum)", "experiment": "Test C pre-/postemergence: ryegrass, Italian", "in_short": "(§2)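 Preemergence on seeds in loam/sand, postemergence on 2–18 cm (1–4-leaf) plants in peat-based medium; compounds in non-phytotoxic solvent with surfactant. After 13–15 days in greenhouse, visual rating versus controls, 0 (no effect) to 100 (complete control).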"}, "[7]": {"tested_on": "foxtail, giant (giant foxtail, Setaria faberii)", "experiment": "Test C pre-/postemergence: foxtail, giant", "in_short": "as §2"}, "[8]": {"tested_on": "kochia (Kochia scoparia)", "experiment": "Test C pre-/postemergence: kochia", "in_short": "as §2"}, "[9]": {"tested_on": "lambsquarters (Chenopodium album)", "experiment": "Test C pre-/postemergence: lambsquarters", "in_short": "as §2"}, "[10]": {"tested_on": "morningglory (Ipomoea coccinea)", "experiment": "Test C pre-/postemergence: morningglory", "in_short": "as §2"}, "[11]": {"tested_on": "pigweed (Amaranthus retroflexus)", "experiment": "Test C pre-/postemergence: pigweed", "in_short": "as §2"}, "[12]": {"tested_on": "chickweed (common chickweed, Stellaria media)", "experiment": "Test C postemergence: chickweed", "details": "31 g ai/ha, scale 0 to 100 (0 no effect, 100 complete control)", "in_short": "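Pot-grown plants in peat/vermiculite medium sprayed postemergence at 2–18 cm height (1- to 4-leaf stage). Kept in greenhouse 13 to 15 days, then visually rated against untreated controls on a 0–100 scale (0 = no effect, 100 = complete control).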"}, "[13]": {"details": "Postemergence, 31 g ai/ha, scale 0 to 100 (0 no effect, 100 complete control)"}, "[14]": {"details": "Postemergence, 62 g ai/ha, scale 0 to 100 (0 no effect, 100 complete control)"}, "[15]": {"details": "Postemergence, 125 g ai/ha, scale 0 to 100, 0 no effect, 100 complete control"}, "[16]": {"details": "Postemergence, 250 g ai/ha, scale 0 to 100"}, "[17]": {"details": "Preemergence, 31 g ai/ha, scale of 0 to 100, 0 is no effect, 100 is complete control"}, "[18]": {"details": "Preemergence, 62 g ai/ha, scale of 0 to 100, 0 is no effect, 100 is complete control"}, "[19]": {"details": "Preemergence, 125 g ai/ha, scale 0 to 100, 0 no effect, 100 complete control"}, "[20]": {"details": "Preemergence, 250 g ai/ha, scale 0 to 100, 0 no effect, 100 complete control"}}, "note": "Where two headings read alike, the source gives them in different places.", "data": [{"compound": "Cc1nn(-c2ccc(C(F)(F)F)cc2)nc1Cc1ccnc(C(F)(F)F)c1", "note": "[Compound 47, 4-[[5-methyl-2-[4-(trifluoromethyl)phenyl]-2H-1,2,3-triazol-4-yl]methyl]-2-(trifluoromethyl)pyridine]", "values": [{"measurement": "pest or weed control at 125 g/ha", "setting": "[1]; post-emergence, Postemergence, 0 to 100 scale, 0 is no effect, 100 is complete control, read-out: Morningglory plant response rating", "value": 90, "unit": "%"}, {"measurement": "pest or weed control at 500 g/ha", "setting": "[1]; post-emergence, Postemergence, visual rating on 0 to 100 scale (0 no effect, 100 complete control), approximately ten days, read-out: Morningglory plant response rating", "value": 90, "unit": "%"}, {"measurement": "pest or weed control at 125 g/ha", "setting": "[1]; pre-emergence, Preemergence, 0 to 100 scale (0 no effect, 100 complete control), read-out: Plant response rating, Morningglory", "value": 70, "unit": "%"}, {"measurement": "pest or weed control at 500 g/ha", "setting": "[1]; pre-emergence, Preemergence, 0 to 100 scale, 0 is no effect, 100 is complete control, read-out: Plant response rating, Morningglory", "value": 80, "unit": "%"}, {"measurement": "pest or weed control at 125 g/ha", "setting": "[2]; post-emergence, Postemergence, 0 to 100 scale, 0 is no effect, 100 is complete control, read-out: Pigweed plant response rating", "value": 100, "unit": "%"}, {"measurement": "pest or weed control at 500 g/ha", "setting": "[2]; post-emergence, Postemergence, visual rating on 0 to 100 scale (0 no effect, 100 complete control), approximately ten days, read-out: Pigweed plant response rating", "value": 100, "unit": "%"}, {"measurement": "pest or weed control at 125 g/ha", "setting": "[2]; pre-emergence, Preemergence, 0 to 100 scale (0 no effect, 100 complete control), read-out: Plant response rating, Pigweed", "value": 100, "unit": "%"}, {"measurement": "pest or weed control at 500 g/ha", "setting": "[2]; pre-emergence, Preemergence, 0 to 100 scale, 0 is no effect, 100 is complete control, read-out: Plant response rating, Pigweed", "value": 100, "unit": "%"}, {"measurement": "pest or weed control at 125 g/ha", "setting": "[3]; post-emergence, Postemergence, 0 to 100 scale, 0 is no effect, 100 is complete control, read-out: Velvetleaf plant response rating", "value": 100, "unit": "%"}, {"measurement": "pest or weed control at 500 g/ha", "setting": "[3]; post-emergence, Postemergence, visual rating on 0 to 100 scale (0 no effect, 100 complete control), approximately ten days, read-out: Velvetleaf plant response rating", "value": 100, "unit": "%"}, {"measurement": "pest or weed control at 125 g/ha", "setting": "[3]; pre-emergence, Preemergence, 0 to 100 scale (0 no effect, 100 complete control), read-out: Plant response rating, Velvetleaf", "value": 80, "unit": "%"}, {"measurement": "pest or weed control at 500 g/ha", "setting": "[3]; pre-emergence, Preemergence, 0 to 100 scale, 0 is no effect, 100 is complete control, read-out: Plant response rating, Velvetleaf", "value": 100, "unit": "%"}, {"measurement": "plant injury at 125 g/ha", "setting": "[4]; post-emergence, Postemergence, 0 to 100 scale, 0 is no effect, 100 is complete control, read-out: Wheat plant response rating", "value": 30, "unit": "%"}, {"measurement": "plant injury at 500 g/ha", "setting": "[4]; post-emergence, Postemergence, visual rating on 0 to 100 scale (0 no effect, 100 complete control), approximately ten days, read-out: Wheat plant response rating", "value": 50, "unit": "%"}, {"measurement": "plant injury at 125 g/ha", "setting": "[4]; pre-emergence, Preemergence, 0 to 100 scale (0 no effect, 100 complete control), read-out: Plant response rating, Wheat", "value": 30, "unit": "%"}, {"measurement": "plant injury at 500 g/ha", "setting": "[4]; pre-emergence, Preemergence, 0 to 100 scale, 0 is no effect, 100 is complete control, read-out: Plant response rating, Wheat", "value": 40, "unit": "%"}, {"measurement": "plant injury at 125 g/ha", "setting": "[5]; post-emergence, Postemergence, 125 g ai/ha, 0 to 100 scale, 0 is no effect, 100 is complete control, read-out: Corn plant response rating", "value": 20, "unit": "%"}, {"measurement": "plant injury at 500 g/ha", "setting": "[5]; post-emergence, Postemergence, 500 g ai/ha, visual rating on 0 to 100 scale (0 no effect, 100 complete control), approximately ten days, read-out: Corn plant response rating", "value": 40, "unit": "%"}, {"measurement": "Corn plant response rating (crop injury, 0 = no effect, 100 = complete kill) at 125 g/ha", "setting": "[5]; pre-emergence, Preemergence, 125 g ai/ha, 0 to 100 scale (0 no effect, 100 complete control)", "value": 20, "unit": "%"}, {"measurement": "Corn plant response rating (crop injury, 0 = no effect, 100 = complete kill) at 500 g/ha", "setting": "[5]; pre-emergence, Preemergence, 500 g ai/ha, 0 to 100 scale, 0 is no effect, 100 is complete control", "value": 30, "unit": "%"}, {"measurement": "Plant response rating, Ryegrass, Italian", "setting": "[6]; [13]", "value": 35}, {"measurement": "Plant response rating, Ryegrass, Italian", "setting": "[6]; [14]", "value": 65}, {"measurement": "Plant response rating, Ryegrass, Italian", "setting": "[6]; [15]", "value": 75}, {"measurement": "Plant response rating, Ryegrass, Italian", "setting": "[6]; [16]", "value": 85}, {"measurement": "Plant response rating, Ryegrass, Italian", "setting": "[6]; [17]", "value": 35}, {"measurement": "Plant response rating, Ryegrass, Italian", "setting": "[6]; [18]", "value": 50}, {"measurement": "Plant response rating, Ryegrass, Italian", "setting": "[6]; [19]", "value": 90}, {"measurement": "Plant response rating, Ryegrass, Italian", "setting": "[6]; [20]", "value": 98}, {"measurement": "Plant response rating, Foxtail, Giant", "setting": "[7]; [13]", "value": 65}, {"measurement": "Plant response rating, Foxtail, Giant", "setting": "[7]; [14]", "value": 65}, {"measurement": "Plant response rating, Foxtail, Giant", "setting": "[7]; [15]", "value": 80}, {"measurement": "Plant response rating, Foxtail, Giant", "setting": "[7]; [16]", "value": 98}, {"measurement": "Plant response rating, Foxtail, Giant", "setting": "[7]; [17]", "value": 95}, {"measurement": "Plant response rating, Foxtail, Giant", "setting": "[7]; [18]", "value": 100}, {"measurement": "Plant response rating, Foxtail, Giant", "setting": "[7]; [19]", "value": 100}, {"measurement": "Plant response rating, Foxtail, Giant", "setting": "[7]; [20]", "value": 100}, {"measurement": "Plant response rating, Kochia", "setting": "[8]; [13]", "value": 65}, {"measurement": "Plant response rating, Kochia", "setting": "[8]; [17]", "value": 85}, {"measurement": "Plant response rating, Kochia", "setting": "[8]; [18]", "value": 90}, {"measurement": "Plant response rating, Kochia", "setting": "[8]; [19]", "value": 98}, {"measurement": "Plant response rating, Kochia", "setting": "[8]; [20]", "value": 98}, {"measurement": "Plant response rating, Lambsquarters", "setting": "[9]; [13]", "value": 100}, {"measurement": "Plant response rating, Lambsquarters", "setting": "[9]; [17]", "value": 100}, {"measurement": "Plant response rating, Lambsquarters", "setting": "[9]; [18]", "value": 100}, {"measurement": "Plant response rating, Lambsquarters", "setting": "[9]; [19]", "value": 100}, {"measurement": "Plant response rating, Lambsquarters", "setting": "[9]; [20]", "value": 100}, {"measurement": "Plant response rating, Morningglory", "setting": "[10]; [13]", "value": 75}, {"measurement": "Plant response rating, Morningglory", "setting": "[10]; [14]", "value": 95}, {"measurement": "Plant response rating, Morningglory", "setting": "[10]; [15]", "value": 100}, {"measurement": "Plant response rating, Morningglory", "setting": "[10]; [16]", "value": 100}, {"measurement": "Plant response rating, Morningglory", "setting": "[10]; [17]", "value": 5}, {"measurement": "Plant response rating, Morningglory", "setting": "[10]; [18]", "value": 20}, {"measurement": "Plant response rating, Morningglory", "setting": "[10]; [19]", "value": 50}, {"measurement": "Plant response rating, Morningglory", "setting": "[10]; [20]", "value": 65}, {"measurement": "Plant response rating, Pigweed", "setting": "[11]; [13]", "value": 100}, {"measurement": "Plant response rating, Pigweed", "setting": "[11]; [14]", "value": 100}, {"measurement": "Plant response rating, Pigweed", "setting": "[11]; [15]", "value": 100}, {"measurement": "Plant response rating, Pigweed", "setting": "[11]; [16]", "value": 100}, {"measurement": "Plant response rating, Pigweed", "setting": "[11]; [17]", "value": 100}, {"measurement": "Plant response rating, Pigweed", "setting": "[11]; [18]", "value": 100}, {"measurement": "Plant response rating, Pigweed", "setting": "[11]; [19]", "value": 100}, {"measurement": "Plant response rating, Pigweed", "setting": "[11]; [20]", "value": 100}, {"measurement": "Plant response rating, Chickweed", "setting": "[12]", "value": 80}]}]}
